Laboratory results taken from patent US9375013B2, “Herbicidal composition” (ISHIHARA SANGYO KAISHA, LTD., priority 2013, dated 2016).

Key:
Assay type in all cases: in vivo
[1] = system: rostrate sesbania(Sesbania rostrata Bremek. & Oberm.); test: Test Example 7: pot soil treatment, growth inhibition of rostrate sesbania; conditions: 22nd day after treatment, read-out: Growth inhibition rate (%) of rostrate sesbania, Measured value
[2] = system: guinea grass (Panicum maximum Jacq.); test: Test Example 4: pot soil treatment, growth inhibition of guinea grass; conditions: Megathyrsus maximus, dose 200 g/ha, 22nd day after treatment, read-out: Growth inhibition rate (%) of guinea grass, Measured value
Source text: (§1) On the 14th day after treatment, the state of growth of the summergrass was visually observed to determine the growth inhibition rate in accordance with the following evaluation standard. The growth inhibition rate (%) (measured value) and the growth inhibition rate (%) (calculated value) calculated by the Colby's formula are shown in Table 1. Growth inhibition rate (%)=0 (equivalent to the non-treated area) to 100 (complete kill) Upland field soil was put into a 1/160,000 ha pot, and seeds of guinea grass (Panicum maximum Jacq.) were sown. On the next day, predetermined amounts of flazasulfuron and mesotrione were diluted with water (in an amount corresponding to 300 L/ha), and applied for soil treatment by a small sprayer. On the 22nd day after treatment, the state of growth of the guinea grass was visually observed to determine the growth inhibition rate. The growth inhibition rate (%) (measured value) and the growth inhibition rate (%) calculated in the same manner as in Test Example 1 are shown in Table 4.

[3] = system: wild oat (Avena fatua L.); test: Test Example 3: pot soil treatment, growth inhibition of wild oat; conditions: 22nd day after treatment, read-out: Growth inhibition rate (%) of wild oat, Measured value
Source text: as §1, with “wild oat (Avena fatua L.)” for “guinea grass (Panicum maximum Jacq.)”, “flazasulfuron, mesotrione” for “flazasulfuron”, “imazapic” for “mesotrione”, “wild oat” for “guinea grass”, “3.” for “4.”

[4] = system: field bindweed (Convolvulus arvensis L.); test: Test Example 15: pot soil treatment, growth inhibition of field bindweed; conditions: 21st day after treatment, read-out: Growth inhibition rate (%) of field bindweed, Measured value
Source text: as §1, with “field bindweed (Convolvulus arvensis L.)” for “guinea grass (Panicum maximum Jacq.)”, “flazasulfuron, mesotrione” for “flazasulfuron”, “imazapic” for “mesotrione”, “21st” for “22nd”, “field bindweed” for “guinea grass”, “15.” for “4.”

[5] = system: field bindweed (Convolvulus arvensis L.); test: Test Example 5: pot soil treatment, growth inhibition of field bindweed; conditions: dose 300 g/ha, 22nd day after treatment, read-out: Growth inhibition rate (%) of field bindweed, Measured value
Source text: as §1, with “field bindweed (Convolvulus arvensis L.)” for “guinea grass (Panicum maximum Jacq.)”, “hexazinone” for “mesotrione”, “field bindweed” for “guinea grass”, “5.” for “4.”

[6] = system: ivy-leaved morningglory (Ipomoea hederacea (L.) Jacq.); test: Test Example 2: pot soil treatment, growth inhibition of ivy-leaved morningglory; conditions: 22nd day after treatment, read-out: Growth inhibition rate (%) of ivy-leaved morningglory, Measured value
Source text: as §1, with “ivy-leaved morningglory (Ipomoea hederacea (L.)” for “guinea grass (Panicum maximum”, “hexazinone” for “mesotrione”, “ivy-leaved morningglory” for “guinea grass”, “2.” for “4.”

[7] = system: velvetleaf (Abutilon theophrasti MEDIC.); test: Test Example 14: pot soil treatment, growth inhibition of velvetleaf; conditions: dose 200 g/ha, 21st day after treatment, read-out: Growth inhibition rate (%) of velvetleaf, Measured value
Source text: as §1, with “velvetleaf (Abutilon theophrasti MEDIC.)” for “guinea grass (Panicum maximum Jacq.)”, “hexazinone” for “mesotrione”, “21st” for “22nd”, “velvetleaf” for “guinea grass”, “14.” for “4.”

[8] = system: barnyardgrass (Echinochloa crus-galli L); test: Test Example 9: pot soil treatment, growth inhibition of barnyardgrass; conditions: dose 100 g/ha, 21st day after treatment, read-out: Growth inhibition rate (%) of barnyardgrass, Measured value
Source text: as §1, with “barnyardgrass (Echinochloa crus-galli L)” for “guinea grass (Panicum maximum Jacq.)”, “hexazinone” for “mesotrione”, “21st” for “22nd”, “barnyardgrass” for “guinea grass”, “9.” for “4.”

[9] = system: shattercane (Sorghum bicolor (L.) Moench.); test: Test Example 6: pot soil treatment, growth inhibition of shattercane; conditions: dose 100 g/ha, 22nd day after treatment, read-out: Growth inhibition rate (%) of shattercane, Measured value
Source text: On the 14th day after treatment, the state of growth of the summergrass was visually observed to determine the growth inhibition rate in accordance with the following evaluation standard. The growth inhibition rate (%) (measured value) and the growth inhibition rate (%) (calculated value) calculated by the Colby's formula are shown in Table 1. Growth inhibition rate (%)=0 (equivalent to the non-treated area) to 100 (complete kill)
Upland field soil was put into a 1/160,000 ha pot, and seeds of shattercane (Sorghum bicolor (L.) Moench.) were sown. On the next day, predetermined amounts of flazasulfuron and hexazinone were diluted with water (in an amount corresponding to 300 L/ha), and applied for soil treatment by a small sprayer.
On the 22nd day after treatment, the state of growth of the shattercane was visually observed to determine the growth inhibition rate. The growth inhibition rate (%) (measured value) and the growth inhibition rate (%) calculated in the same manner as in Test Example 1 are shown in Table 6.

[10] = system: persian speedwell (Veronica persica Poiret.); test: Test Example 10: pot soil treatment, growth inhibition of persian speedwell; conditions: dose 100 g/ha, 21st day after treatment, read-out: Growth inhibition rate (%) of persian speedwell, Measured value
[11] = system: summergrass (Digitaria ciliaris (Retz.) Koeler); test: Test Example 1: pot soil treatment, growth inhibition of summergrass; conditions: dose 150 g/ha, 14th day after treatment, read-out: Growth inhibition rate (%) of summergrass, Measured value
Description: Upland field soil was put into a 1/160,000 ha pot, and seeds of summergrass (Digitaria ciliaris (Retz.) Koeler) were sown. On the next day, predetermined amounts of flazasulfuron and imazapic were diluted with water (in an amount corresponding to 300 L/ha), and applied for soil treatment by a small sprayer. On the 14th day after treatment, the state of growth of the summergrass was visually observed to determine the growth inhibition rate in accordance with the following evaluation standard. The growth inhibition rate (%) (measured value) and the growth inhibition rate (%) (calculated value) calculated by the Colby's formula are shown in Table 1. Growth inhibition rate (%)=0 (equivalent to the non-treated area) to 100 (complete kill)

[12] = system: common ragweed (Ambrosia artemisiifolia L.); test: Test Example 11: pot soil treatment, growth inhibition of common ragweed; conditions: dose 150 g/ha, 21st day after treatment, read-out: Growth inhibition rate (%) of common ragweed, Measured value
Source text: as §1, with “common ragweed (Ambrosia artemisiifolia L.)” for “guinea grass (Panicum maximum Jacq.)”, “imazapic” for “mesotrione”, “21st” for “22nd”, “common ragweed” for “guinea grass”, “11.” for “4.”

[13] = system: velvetleaf (Abutilon theophrasti MEDIC.); test: Test Example 13: pot soil treatment, growth inhibition of velvetleaf; conditions: dose 50 g/ha, 21st day after treatment, read-out: Growth inhibition rate (%) of velvetleaf, Measured value
[14] = system: common lespedeza (Lespedeza striata (Thunb.) Hook. et Arn.); test: Test Example 12: pot soil treatment, growth inhibition of common lespedeza; conditions: Kummerowia striata, dose 50 g/ha, 21st day after treatment, read-out: Growth inhibition rate (%) of common lespedeza, Measured value
Source text: as §1, with “common lespedeza (Lespedeza striata (Thunb.) Hook. et Arn.)” for “guinea grass (Panicum maximum Jacq.)”, “imazapic” for “mesotrione”, “21st” for “22nd”, “common lespedeza” for “guinea grass”, “12.” for “4.”

[15] = system: persian speedwell (Veronica persica Poir.); test: Test Example 8: pot soil treatment, growth inhibition of persian speedwell; conditions: 21st day after treatment, read-out: Growth inhibition rate (%) of persian speedwell, Measured value

Q: For `CS(=O)(=O)c1ccc(C(=O)C2C(=O)CCCC2=O)c([N+](=O)[O-])c1` [Mesotrione, mesotrione], which inhibition at 50 g/ha [1] is on record?
A: 15%

Q: And the inhibition at 200 g/ha [2]?
A: 0%

Q: What about the inhibition at 50 g/ha ([3]; dose 50 g/ha) of the same compound?
A: 40%

Q: What about the inhibition at 200 g/ha ([3]; dose 200 g/ha) of the same compound?
A: 0%

Q: And the inhibition at 200 g/ha ([4]; dose 200 g/ha)?
A: 60%

Q: How did the inhibition at 300 g/ha [5] turn out when `CN(C)c1nc(=O)n(C2CCCCC2)c(=O)n1C` [Hexazinone, hexazinone] was run?
A: 15%

Q: And the inhibition at 100 g/ha ([6]; dose 100 g/ha)?
A: 0%

Q: What about the inhibition at 200 g/ha ([6]; dose 200 g/ha) of the same compound?
A: 30%

Q: And the inhibition at 300 g/ha ([6]; dose 300 g/ha)?
A: 40%

Q: What about the inhibition at 200 g/ha [7] of the same compound?
A: 30%

Q: What about the inhibition at 100 g/ha [8] of the same compound?
A: 0%

Q: And the inhibition at 100 g/ha [9]?
A: 0%

Q: And the inhibition at 100 g/ha [10]?
A: 85%

Q: What does the source list for `Cc1cnc(C2=NC(=O)C(C)(C(C)C)N2)c(C(=O)O)c1` (stereo not drawn) [Imazapic, imazapic]?
A: inhibition at 150 g/ha [11]: 50%; inhibition at 150 g/ha [12]: 60%; inhibition at 50 g/ha [13]: 30%; inhibition at 50 g/ha [14]: 0%; inhibition at 50 g/ha [15]: 50%; inhibition at 100 g/ha ([3]; dose 100 g/ha): 40%; inhibition at 150 g/ha ([3]; dose 150 g/ha): 60%; inhibition at 150 g/ha ([4]; dose 150 g/ha): 15%
